Assay results published in patent US9656996B2, “Fused heterocyclic compound, preparation method therefor, pharmaceutical composition, and uses thereof” (SHANGHAI YINGLI PHARMACEUTICAL CO., LTD., priority 2013, dated 2017).

Assays:
PI3Kδ = PI3Kδ (Homo sapiens (Human), UniProt O00329); test: PI3Kδ enzymatic inhibitory activity IC50 assay; format: biochemical; conditions: luminescence readout, 25 μM ATP, 50 μM PIP2, 2 hours at room temperature
Experimental: (§1) 1. Buffer preparation: 50 mM HEPES, pH 7.5, 3 mM MgCl2, 1 mM EGTA, 100 mM NaCl, 0.03% CHAPS.
(§2) 2. The compound was formulated in 100% DMSO in a concentration gradient, and deposited to a 384-well plate with a final DMSO concentration of 1%.
(§3) 3. PI3Kα, PI3Kδ, PI3Kβ and PI3Kγ enzymes (purchased from EMD Millipore) were diluted to the optimal concentration with the following buffer: 50 mM HEPES, pH 7.5, 3 mM MgCl2, 1 mM EGTA, 100 mM NaCl, 0.03% CHAPS, 2 mM DTT, transferred to a 384-well plate and incubated with the compound for a certain time.
(§4) 4. The substrate was diluted to an optimal concentration with the following buffer: 50 mM HEPES, pH 7.5, 3 mM MgCl2, 1 mM EGTA, 100 mM NaCl, 0.03% CHAPS, 2 mM DTT, 50 μM PIP2, 25 μM ATP and added to the 384-well plate to initiate the reaction. PI3Kα, PI3Kβ and PI3Kγ were allowed to react for 1 h at room temperature, and PI3Kδ reacted for 2 hours at room temperature. Another 10 μL ADP-Glo Detection Reagent also needed to be added for PI3Kβ and PI3Kγ, and then equilibrated at room temperature for 30 minutes.
(§5) 5. Luminescence was read by using Flexstation, and the inhibition rate was calculated as the average value of two tests.

[1] = system: Raji cell TNF-α generation; test: Inhibition of human Raji cell TNF-α generation induced by human IgM (ELISA); format: cell-based; conditions: Raji cells, IgM stimulation, 24 hours
Experimental: 1. Raji cell line (human Burkitt's lymphoma origin) (ATCC, Cat#CCL-86) was used.
2. Raji cells were applied onto the 96-well plate with 1×10^5/well.
3. The compounds to be screened were diluted to the corresponding test concentration, and added to the cell culture system 30 minutes prior to IgM stimulation.
4. 10 µg/ml IgM monoclonal antibody (JACKSON, Cat#109-006-129) was added to the cell culture system in order to stimulate the cells generating TNF-α.
5. After 24 hours, the amount of TNF-α produced by the cell line was determined by ELISA.
6. The inhibition rates at each concentration of the compound were calculated and plotted to calculate 50% inhibition rate (IC50), and the specific results were shown in table 3.

PI3Kγ = PI3Kγ (Homo sapiens (Human), UniProt P48736); test: PI3Kγ enzymatic inhibitory activity IC50 assay; format: biochemical; conditions: selectivity ratio
Sequence of PI3Kγ (P48736 whole entry, species assumed): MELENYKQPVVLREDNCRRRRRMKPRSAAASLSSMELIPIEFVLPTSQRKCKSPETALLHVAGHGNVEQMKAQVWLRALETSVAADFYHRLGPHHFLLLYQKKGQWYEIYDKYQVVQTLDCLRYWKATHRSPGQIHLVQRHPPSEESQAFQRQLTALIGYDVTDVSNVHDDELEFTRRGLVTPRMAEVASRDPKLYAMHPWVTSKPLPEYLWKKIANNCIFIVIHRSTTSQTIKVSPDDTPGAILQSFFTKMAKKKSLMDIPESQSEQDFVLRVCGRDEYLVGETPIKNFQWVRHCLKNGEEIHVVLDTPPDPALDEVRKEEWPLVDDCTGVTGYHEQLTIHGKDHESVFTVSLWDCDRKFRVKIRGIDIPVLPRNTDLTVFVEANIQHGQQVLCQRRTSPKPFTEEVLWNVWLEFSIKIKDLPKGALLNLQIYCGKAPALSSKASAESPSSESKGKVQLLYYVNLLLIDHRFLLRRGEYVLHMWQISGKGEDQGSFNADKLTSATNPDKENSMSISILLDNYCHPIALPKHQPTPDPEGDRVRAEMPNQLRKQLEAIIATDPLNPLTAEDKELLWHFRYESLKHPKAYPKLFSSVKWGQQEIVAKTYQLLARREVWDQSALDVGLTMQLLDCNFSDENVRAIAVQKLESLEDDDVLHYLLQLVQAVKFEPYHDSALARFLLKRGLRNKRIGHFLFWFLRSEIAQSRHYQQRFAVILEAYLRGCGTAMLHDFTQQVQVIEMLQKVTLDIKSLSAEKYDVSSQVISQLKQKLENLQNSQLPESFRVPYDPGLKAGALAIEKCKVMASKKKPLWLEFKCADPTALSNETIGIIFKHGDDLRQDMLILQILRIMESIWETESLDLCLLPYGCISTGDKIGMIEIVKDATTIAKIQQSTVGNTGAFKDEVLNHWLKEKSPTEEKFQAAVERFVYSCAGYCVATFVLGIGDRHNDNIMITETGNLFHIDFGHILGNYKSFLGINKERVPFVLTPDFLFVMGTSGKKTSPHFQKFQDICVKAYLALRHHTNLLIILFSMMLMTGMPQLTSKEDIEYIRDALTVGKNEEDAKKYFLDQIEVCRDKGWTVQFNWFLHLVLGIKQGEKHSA
Experimental: as §1, §2, §3, §4, §5

PI3Kβ = PI3Kβ (Homo sapiens (Human), UniProt P42338); test: PI3Kβ enzymatic inhibitory activity IC50 assay; format: biochemical; conditions: selectivity ratio
Sequence of PI3Kβ (P42338 whole entry, species assumed): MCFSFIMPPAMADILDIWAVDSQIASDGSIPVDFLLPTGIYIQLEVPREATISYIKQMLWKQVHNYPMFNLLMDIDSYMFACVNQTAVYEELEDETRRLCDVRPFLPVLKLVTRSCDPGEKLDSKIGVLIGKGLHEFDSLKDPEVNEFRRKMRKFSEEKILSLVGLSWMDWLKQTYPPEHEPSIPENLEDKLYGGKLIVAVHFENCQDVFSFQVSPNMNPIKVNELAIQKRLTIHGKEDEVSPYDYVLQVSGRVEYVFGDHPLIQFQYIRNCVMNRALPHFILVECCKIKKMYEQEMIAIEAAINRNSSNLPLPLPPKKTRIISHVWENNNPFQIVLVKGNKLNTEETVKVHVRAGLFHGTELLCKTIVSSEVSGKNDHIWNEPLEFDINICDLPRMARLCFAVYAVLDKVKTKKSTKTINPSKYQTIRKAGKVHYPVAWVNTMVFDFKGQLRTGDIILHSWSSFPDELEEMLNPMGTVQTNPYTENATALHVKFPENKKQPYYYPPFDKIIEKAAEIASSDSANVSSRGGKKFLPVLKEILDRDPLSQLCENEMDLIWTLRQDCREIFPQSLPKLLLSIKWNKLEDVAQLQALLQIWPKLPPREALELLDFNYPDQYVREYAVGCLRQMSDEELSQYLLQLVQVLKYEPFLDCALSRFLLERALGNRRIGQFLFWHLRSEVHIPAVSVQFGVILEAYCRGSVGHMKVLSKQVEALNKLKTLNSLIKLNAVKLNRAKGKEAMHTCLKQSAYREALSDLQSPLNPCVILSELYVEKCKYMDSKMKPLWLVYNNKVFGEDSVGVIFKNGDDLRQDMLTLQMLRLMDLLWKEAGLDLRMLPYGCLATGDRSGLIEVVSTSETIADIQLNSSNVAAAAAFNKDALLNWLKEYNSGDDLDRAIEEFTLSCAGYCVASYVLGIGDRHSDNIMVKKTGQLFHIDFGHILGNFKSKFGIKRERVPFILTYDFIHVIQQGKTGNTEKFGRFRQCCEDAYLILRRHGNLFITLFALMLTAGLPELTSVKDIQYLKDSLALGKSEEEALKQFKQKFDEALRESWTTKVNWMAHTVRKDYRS
Sequence of PI3Kβ (P27986 whole entry partner, species assumed): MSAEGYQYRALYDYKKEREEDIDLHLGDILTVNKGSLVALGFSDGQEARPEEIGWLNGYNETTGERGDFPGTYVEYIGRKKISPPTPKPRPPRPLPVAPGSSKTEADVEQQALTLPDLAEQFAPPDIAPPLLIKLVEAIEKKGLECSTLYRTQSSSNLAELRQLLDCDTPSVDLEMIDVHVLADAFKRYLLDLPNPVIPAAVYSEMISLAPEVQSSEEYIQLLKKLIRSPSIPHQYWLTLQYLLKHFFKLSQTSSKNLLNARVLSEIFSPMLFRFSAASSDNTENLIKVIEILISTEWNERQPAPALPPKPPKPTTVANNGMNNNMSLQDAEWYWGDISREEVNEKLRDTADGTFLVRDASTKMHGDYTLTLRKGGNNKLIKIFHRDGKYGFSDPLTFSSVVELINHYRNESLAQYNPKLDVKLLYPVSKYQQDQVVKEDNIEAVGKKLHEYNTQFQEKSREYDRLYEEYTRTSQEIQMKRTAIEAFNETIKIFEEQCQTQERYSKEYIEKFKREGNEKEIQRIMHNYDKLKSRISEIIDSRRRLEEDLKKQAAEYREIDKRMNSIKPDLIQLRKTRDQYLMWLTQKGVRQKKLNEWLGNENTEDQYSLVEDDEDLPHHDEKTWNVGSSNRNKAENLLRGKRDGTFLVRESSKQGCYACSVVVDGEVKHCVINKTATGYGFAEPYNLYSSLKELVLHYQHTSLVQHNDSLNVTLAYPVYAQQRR
Experimental: as §1, §2, §3, §4, §5

PI3Kα = PI3Kα (Homo sapiens (Human), UniProt P42336); test: PI3Kα enzymatic inhibitory activity IC50 assay; format: biochemical; conditions: selectivity ratio
Sequence of PI3Kα (P42336 whole entry, species assumed): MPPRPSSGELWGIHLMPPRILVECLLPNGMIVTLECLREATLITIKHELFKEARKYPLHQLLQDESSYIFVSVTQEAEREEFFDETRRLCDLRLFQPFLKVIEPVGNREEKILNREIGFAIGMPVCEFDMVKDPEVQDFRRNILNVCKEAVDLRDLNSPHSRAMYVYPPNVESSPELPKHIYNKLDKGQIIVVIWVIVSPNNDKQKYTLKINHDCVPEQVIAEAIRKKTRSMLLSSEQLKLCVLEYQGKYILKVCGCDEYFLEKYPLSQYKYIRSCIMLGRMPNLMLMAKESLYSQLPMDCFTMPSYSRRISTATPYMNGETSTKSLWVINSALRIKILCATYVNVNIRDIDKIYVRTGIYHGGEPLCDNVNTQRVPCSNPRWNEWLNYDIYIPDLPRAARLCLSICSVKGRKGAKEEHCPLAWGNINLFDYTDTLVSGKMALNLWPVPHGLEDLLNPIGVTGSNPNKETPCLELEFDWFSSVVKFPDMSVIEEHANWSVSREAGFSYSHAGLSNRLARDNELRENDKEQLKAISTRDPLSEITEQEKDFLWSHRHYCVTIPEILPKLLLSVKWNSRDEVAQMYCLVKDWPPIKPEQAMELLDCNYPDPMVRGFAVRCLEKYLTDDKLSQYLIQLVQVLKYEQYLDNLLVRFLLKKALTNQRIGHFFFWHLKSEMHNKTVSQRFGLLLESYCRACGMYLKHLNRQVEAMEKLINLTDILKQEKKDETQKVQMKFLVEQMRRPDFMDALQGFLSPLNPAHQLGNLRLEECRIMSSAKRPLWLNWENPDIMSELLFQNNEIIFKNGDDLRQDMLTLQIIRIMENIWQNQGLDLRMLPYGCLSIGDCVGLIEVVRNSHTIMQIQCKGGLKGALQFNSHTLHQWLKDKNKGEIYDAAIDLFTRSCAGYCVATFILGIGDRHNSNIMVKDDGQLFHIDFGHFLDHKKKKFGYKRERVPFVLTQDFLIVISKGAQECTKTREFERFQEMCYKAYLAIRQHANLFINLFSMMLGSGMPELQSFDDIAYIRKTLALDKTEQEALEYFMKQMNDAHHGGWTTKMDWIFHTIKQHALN
Sequence of PI3Kα (P27986 whole entry partner, species assumed): as the sequence (P27986 whole entry partner, species assumed) above
Experimental: as §1, §2, §3, §4, §5

Sequence of PI3Kδ (O00329 whole entry, species assumed): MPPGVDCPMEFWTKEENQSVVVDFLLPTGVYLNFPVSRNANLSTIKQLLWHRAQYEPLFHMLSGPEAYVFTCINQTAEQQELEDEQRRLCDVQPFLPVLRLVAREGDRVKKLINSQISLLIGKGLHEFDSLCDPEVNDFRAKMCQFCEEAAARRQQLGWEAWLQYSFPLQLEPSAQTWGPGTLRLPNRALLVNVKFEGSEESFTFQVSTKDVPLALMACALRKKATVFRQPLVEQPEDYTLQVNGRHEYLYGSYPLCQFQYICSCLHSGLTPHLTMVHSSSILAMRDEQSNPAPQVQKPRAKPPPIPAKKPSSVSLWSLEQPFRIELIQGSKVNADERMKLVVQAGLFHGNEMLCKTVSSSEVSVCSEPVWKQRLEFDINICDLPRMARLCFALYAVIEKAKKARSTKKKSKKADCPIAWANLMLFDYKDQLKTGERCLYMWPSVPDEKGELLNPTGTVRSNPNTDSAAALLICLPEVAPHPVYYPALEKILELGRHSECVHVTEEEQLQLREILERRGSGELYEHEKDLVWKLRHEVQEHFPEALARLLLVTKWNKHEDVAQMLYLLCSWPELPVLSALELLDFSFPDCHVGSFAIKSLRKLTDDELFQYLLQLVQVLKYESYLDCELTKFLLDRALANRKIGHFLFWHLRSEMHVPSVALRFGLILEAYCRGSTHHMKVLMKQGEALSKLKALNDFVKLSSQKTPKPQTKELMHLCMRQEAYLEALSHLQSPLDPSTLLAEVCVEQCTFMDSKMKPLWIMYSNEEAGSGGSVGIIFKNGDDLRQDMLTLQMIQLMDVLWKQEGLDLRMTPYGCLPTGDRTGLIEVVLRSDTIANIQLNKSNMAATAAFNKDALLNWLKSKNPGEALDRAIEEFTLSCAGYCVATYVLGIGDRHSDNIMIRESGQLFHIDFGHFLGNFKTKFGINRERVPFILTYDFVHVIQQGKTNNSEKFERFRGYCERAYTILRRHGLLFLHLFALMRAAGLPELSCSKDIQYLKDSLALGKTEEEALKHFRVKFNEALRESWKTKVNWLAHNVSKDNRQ
Sequence of PI3Kδ (P27986 whole entry partner, species assumed): as the sequence (P27986 whole entry partner, species assumed) above

IC50 (PI3Kδ): 17 nM
IC50 [1]: 27 nM
γ/δ (ratio of IC50 values against PI3Kγ to PI3Kδ) (PI3Kγ): >588
β/δ (ratio of IC50 values against PI3Kβ to PI3Kδ) (PI3Kβ): 366
α/δ (ratio of IC50 values against PI3Kα to PI3Kδ) (PI3Kα): 239
SMILES: COc1ncc(-c2nc(N3CCOCC3)nc3c(OC4CCC(N5CCCCC5)CC4)cc(F)cc23)cc1NS(C)(=O)=O (centres unmarked) [Compound 36]
